Data taken from the NIST ThermoML archive (doi:10.1016/j.jct.2015.05.028).
± gives the expanded uncertainty stated by the source.

Key:
[1] = mn = molality of the nth substance listed, in mol/kg; conditions: 99.6 kPa, Liquid, Vibrating tube method
[2] = Crystal; DTA

For `O` [water] + CCN1C(=O)N(CC)C2NC(=O)NC21, the mass density ([1]; 278.15 K, m2 = 0) was 999.964 ± 0.11 kg/m3.
In the case of `CN1C(=O)N(C)C2NC(=O)NC21` (centres undefined) + O, the mass density ([1]; 278.15 K, m1 = 0.06671) is reported as 1003.16 ± 0.11 kg/m3, the mass density ([1]; 278.15 K, m1 = 0.0951) is reported as 1004.51 ± 0.11 kg/m3 and the mass density ([1]; 278.15 K, m1 = 0.1319) is reported as 1006.28 ± 0.11 kg/m3. The mass density ([1]; 278.15 K, m1 = 0.169) was 1008.03 ± 0.11 kg/m3, the mass density ([1]; 278.15 K, m1 = 0.1987) was 1009.43 ± 0.11 kg/m3 and the mass density ([1]; 278.15 K, m1 = 0.2323) was 1011.02 ± 0.11 kg/m3. For the same compound, the mass density ([1]; 278.15 K, m1 = 0.2679) was 1012.68 ± 0.11 kg/m3, the mass density ([1]; 278.15 K, m1 = 0.3038) was 1014.37 ± 0.11 kg/m3 and the mass density ([1]; 278.15 K, m1 = 0.3326) was 1015.72 ± 0.11 kg/m3. For the same compound, the mass density ([1]; 278.15 K, m1 = 0.3594) was 1016.96 ± 0.11 kg/m3, the mass density ([1]; 278.15 K, m1 = 0.3919) was 1018.47 ± 0.11 kg/m3 and the mass density ([1]; 288.15 K, m1 = 0.06671) was 1002.21 ± 0.11 kg/m3. The mass density ([1]; 288.15 K, m1 = 0.0951) was 1003.52 ± 0.11 kg/m3, the mass density ([1]; 288.15 K, m1 = 0.1319) was 1005.23 ± 0.11 kg/m3 and the mass density ([1]; 288.15 K, m1 = 0.169) was 1006.93 ± 0.11 kg/m3. The mass density ([1]; 288.15 K, m1 = 0.1987) was 1008.31 ± 0.11 kg/m3, the mass density ([1]; 288.15 K, m1 = 0.2323) was 1009.84 ± 0.11 kg/m3 and the mass density ([1]; 288.15 K, m1 = 0.2679) was 1011.46 ± 0.11 kg/m3. It also gave a mass density ([1]; 288.15 K, m1 = 0.3038) of 1013.1 ± 0.11 kg/m3, a mass density ([1]; 288.15 K, m1 = 0.3326) of 1014.41 ± 0.11 kg/m3 and a mass density ([1]; 288.15 K, m1 = 0.3594) of 1015.62 ± 0.11 kg/m3. It also gave a mass density ([1]; 288.15 K, m1 = 0.3919) of 1017.09 ± 0.11 kg/m3, a mass density ([1]; 298.15 K, m1 = 0.06671) of 1000.08 ± 0.11 kg/m3 and a mass density ([1]; 298.15 K, m1 = 0.0951) of 1001.37 ± 0.11 kg/m3. The mass density ([1]; 298.15 K, m1 = 0.1319) was 1003.04 ± 0.11 kg/m3, the mass density ([1]; 298.15 K, m1 = 0.169) was 1004.72 ± 0.11 kg/m3 and the mass density ([1]; 298.15 K, m1 = 0.1987) was 1006.04 ± 0.11 kg/m3. For the same compound, the mass density ([1]; 298.15 K, m1 = 0.2323) was 1007.54 ± 0.11 kg/m3, the mass density ([1]; 298.15 K, m1 = 0.2679) was 1009.13 ± 0.11 kg/m3 and the mass density ([1]; 298.15 K, m1 = 0.3038) was 1010.73 ± 0.11 kg/m3. The mass density ([1]; 298.15 K, m1 = 0.3326) was 1012.01 ± 0.11 kg/m3, the mass density ([1]; 298.15 K, m1 = 0.3594) was 1013.19 ± 0.11 kg/m3 and the mass density ([1]; 298.15 K, m1 = 0.3919) was 1014.62 ± 0.11 kg/m3. The mass density ([1]; 308.15 K, m1 = 0.06671) was 997.02 ± 0.11 kg/m3, the mass density ([1]; 308.15 K, m1 = 0.0951) was 998.281 ± 0.11 kg/m3 and the mass density ([1]; 308.15 K, m1 = 0.1319) was 999.917 ± 0.11 kg/m3. The mass density ([1]; 308.15 K, m1 = 0.169) was 1001.55 ± 0.11 kg/m3, the mass density ([1]; 308.15 K, m1 = 0.1987) was 1002.87 ± 0.11 kg/m3 and the mass density ([1]; 308.15 K, m1 = 0.2323) was 1004.34 ± 0.11 kg/m3. The mass density ([1]; 308.15 K, m1 = 0.2679) was 1005.9 ± 0.11 kg/m3, the mass density ([1]; 308.15 K, m1 = 0.3038) was 1007.47 ± 0.11 kg/m3 and the mass density ([1]; 308.15 K, m1 = 0.3326) was 1008.71 ± 0.11 kg/m3. For the same compound, the mass density ([1]; 308.15 K, m1 = 0.3594) was 1009.88 ± 0.11 kg/m3, the mass density ([1]; 308.15 K, m1 = 0.3919) was 1011.29 ± 0.11 kg/m3 and the mass density ([1]; 318.15 K, m1 = 0.06671) was 993.153 ± 0.11 kg/m3. For the same compound, the mass density ([1]; 318.15 K, m1 = 0.0951) was 994.389 ± 0.11 kg/m3, the mass density ([1]; 318.15 K, m1 = 0.1319) was 995.999 ± 0.11 kg/m3 and the mass density ([1]; 318.15 K, m1 = 0.169) was 997.607 ± 0.11 kg/m3. It also gave a mass density ([1]; 318.15 K, m1 = 0.1987) of 998.902 ± 0.11 kg/m3, a mass density ([1]; 318.15 K, m1 = 0.2323) of 1000.35 ± 0.11 kg/m3 and a mass density ([1]; 318.15 K, m1 = 0.2679) of 1001.88 ± 0.11 kg/m3. For the same compound, the mass density ([1]; 318.15 K, m1 = 0.3038) was 1003.42 ± 0.11 kg/m3, the mass density ([1]; 318.15 K, m1 = 0.3326) was 1004.65 ± 0.11 kg/m3 and the mass density ([1]; 318.15 K, m1 = 0.3594) was 1005.79 ± 0.11 kg/m3. It also gave a mass density ([1]; 318.15 K, m1 = 0.3919) of 1007.17 ± 0.11 kg/m3.
For `CCN1C(=O)N(CC)C2NC(=O)NC21` (centres undefined), the Normal melting temperature [2] was 327.64 ± 2 °C.
`O` [water] + CN1C(=O)N(C)C2NC(=O)NC21 gave a mass density ([1]; 278.15 K, m2 = 0) of 999.965 ± 0.11 kg/m3.
Compound `CN1C(=O)N(C)C2NC(=O)NC21` (centres undefined) has a Normal melting temperature [2] of 253.28 ± 2 °C.
